The record followed here is patent US20240109912A1, “TRICYCLIC PYRIMIDINES AS CYCLIN-DEPENDENT KINASE 7 (CDK7) INHIBITORS” (JANSSEN PHARMACEUTICA NV, priority 2020, published 2024).

Data set [1] concerns RNA polymerase II Serine 5 phosphorylation in A549 cells overexpressing CDK7 mutant (C312S). Kind of data set: Imaging-based cellular RNA PolII Ser5 phosphorylation assay in A549 cells overexpressing CDK7-mutant (C312S). Format: cell-based, human. The conditions noted are these: Homo sapiens, A549, A549 cells overexpressing CDK7 mutant (C312S); read-out: CDK7_ A549 mutant hCDK7(pIC50) (converted). In outline: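 A stably transduced A549 pool overexpressing CDK7 C312S, a mutant that blocks covalent binding at Cys312, while retaining endogenous wild-type CDK7 was used. Ser5 phosphorylation was measured by imaging, and IC50 values were derived.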

The subject of data set [2] is RNA polymerase II Serine 5 phosphorylation (CDK7) in A549 cells.
The target of data set [3] is CDK7/cyclinH/MAT1 trimeric complex (Homo sapiens (Human), UniProt P50613). Kind of data set: In vitro CDK7 assay, potency of irreversible covalent inhibitors (kinact/KI).
The mark [4] stands for this setting: CDK7 (20 nM enz.) (KI, μM), 20 nM enz.
The mark [5] stands for this setting: read-out: CDK7 (20 nM enz.) (kinact, s^−1), 20 nM enz.
Setting [6] is: read-out: CDK7 (20 nM enz.) (kinact/ KI, M^−1*s^−1), 20 nM enz.

Structures are written as SMILES. pIC50: −log10 of the molar value. Several values for one entry are separate records, joined by “and”; a condition that tells them apart may be missing. Equal entries are not always repeated. Where two headings read alike, the source gives them in different places.

CDK7/cyclinH/MAT1 trimeric complex, sequence (P50613 whole entry): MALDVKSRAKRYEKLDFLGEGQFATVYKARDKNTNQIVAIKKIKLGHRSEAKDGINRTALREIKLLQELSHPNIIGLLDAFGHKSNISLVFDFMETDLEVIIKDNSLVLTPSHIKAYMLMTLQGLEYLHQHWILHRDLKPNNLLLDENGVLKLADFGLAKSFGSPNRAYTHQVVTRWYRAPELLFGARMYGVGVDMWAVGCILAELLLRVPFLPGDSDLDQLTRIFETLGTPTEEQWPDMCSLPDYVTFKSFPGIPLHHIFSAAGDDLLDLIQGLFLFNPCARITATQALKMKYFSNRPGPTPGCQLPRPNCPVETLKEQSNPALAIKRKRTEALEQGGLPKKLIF
CDK7/cyclinH/MAT1 trimeric complex, sequence (P51946 whole entry partner): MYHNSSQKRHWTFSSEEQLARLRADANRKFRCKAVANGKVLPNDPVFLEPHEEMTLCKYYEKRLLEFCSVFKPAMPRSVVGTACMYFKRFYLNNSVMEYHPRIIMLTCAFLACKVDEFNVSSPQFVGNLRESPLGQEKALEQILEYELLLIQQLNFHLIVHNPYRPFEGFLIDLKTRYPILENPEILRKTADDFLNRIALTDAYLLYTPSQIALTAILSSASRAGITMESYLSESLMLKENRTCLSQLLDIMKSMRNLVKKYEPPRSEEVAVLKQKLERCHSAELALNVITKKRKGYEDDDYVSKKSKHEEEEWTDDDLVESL
CDK7/cyclinH/MAT1 trimeric complex, sequence (P51948 whole entry partner): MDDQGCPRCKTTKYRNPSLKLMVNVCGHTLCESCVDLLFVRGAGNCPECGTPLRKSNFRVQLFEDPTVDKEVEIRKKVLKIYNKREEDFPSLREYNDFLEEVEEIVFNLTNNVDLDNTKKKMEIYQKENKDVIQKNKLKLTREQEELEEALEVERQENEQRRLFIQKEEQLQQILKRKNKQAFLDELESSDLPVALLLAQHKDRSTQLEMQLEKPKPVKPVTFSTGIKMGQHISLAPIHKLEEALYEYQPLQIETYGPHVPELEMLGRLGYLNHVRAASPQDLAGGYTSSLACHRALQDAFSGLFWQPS

Consider `C=CC(=O)N1CCC(N2CCC(c3ccc4c(c3)Nc3ncnc(N5CCOCC5)c3CO4)CC2)CC1` [compound 2], for which the melting point (usually the temperature of the solid-liquid transition) was determined as 211 °C. Moreover, the IC50 in data set [1] was above 10 µM. The pIC50 (commonly −log10 of the IC50, conventionally taken in molar units) in data set [2] is 6.48 and 6.49. Moreover, the Ki in data set [3] (setting [4]) is 0.754 µM. Moreover, the Ki in data set [3] (CDK7 (KI(μM)), Table B) was found to be 0.365 µM. Besides, the kinact (commonly the rate constant of inactivation at saturating inhibitor) in data set [3] (setting [5]) worked out at 6.34e-05 s⁻¹. Also, the kinact/KI in data set [3] (setting [6]) amounted to 98.7 M⁻¹ s⁻¹. In addition, the kinact in data set [3] (read-out: CDK7 (kinact, s^−1), Table B) is 0.000198 s⁻¹. Besides, the kinact/KI in data set [3] (read-out: CDK7 (kinact/KI, M^−1*s^−1), Table B) stood at 543 M⁻¹ s⁻¹.
With `C=CC(=O)N1CC(N2CCC(c3cc(F)c4c(c3)Nc3ncnc(N5CCOCC5)c3[C@H](C)O4)CC2)C1` (single isomer, unassigned) [compound 49], the melting point worked out at 180 °C. For the same compound, the IC50 in data set [1] was above 10 µM. Further, the negative-log IC50 (pIC50) in data set [2] is 6.75. The same compound returned a Ki in data set [3] (setting [4]) of 0.118 µM. For the same compound, the kinact in data set [3] (setting [5]) turned out to be 5.65e-05 s⁻¹. Besides, the kinact/KI in data set [3] (setting [6]) worked out at 478 M⁻¹ s⁻¹.
`C=CC(=O)N1CCC(N2CCC(c3cc4c(c(C)n3)OCc3c(ncnc3N3CCS(=O)(=O)CC3)N4)CC2)CC1` [compound 59] showed a melting point of 259 °C. Besides, the IC50 in data set [1] was above 10 µM. Besides, in data set [2], the pIC50 is 6.82. In data set [3] (setting [4]), this compound showed a Ki of 0.0715 µM. The maximal inactivation rate constant (kinact) in data set [3] (setting [5]) was 5.06e-05 s⁻¹. In data set [3] (setting [6]), the kinact/KI stood at 708 M⁻¹ s⁻¹.
In turn, `C=CC(=O)N1CCC(N2CC(c3cc4c(c(C)n3)OCc3c(ncnc3N3CCS(=O)(=O)CC3)N4)C2)C1` (stereo not drawn) [compound 77] displayed a melting point above 300 °C. The IC50 in data set [1] is above 10 µM. This compound also had a pIC50 in data set [2] of 5.39. Besides, the Ki in data set [3] (setting [4]) is 0.172 µM. For the same compound, the kinact in data set [3] (setting [5]) is 3.83e-05 s⁻¹. In data set [3] (setting [6]), the kinact/KI stood at 223 M⁻¹ s⁻¹.
Turning to `C=CC(=O)N1CC(N2CCC(c3cc4c(cc3C#N)OCc3c(ncnc3N3CCOCC3)N4)CC2)C1` [compound 61], the melting point is above 300 °C. For the same compound, the IC50 in data set [1] was above 10 µM. The same compound showed a pIC50 in data set [2] of 5.70. In data set [3] (setting [4]), this compound came in with a Ki of 0.83 µM. Moreover, in data set [3] (setting [5]), the kinact is 5.1e-05 s⁻¹. Besides, the kinact/KI in data set [3] (setting [6]) was found to be 61.4 M⁻¹ s⁻¹.
Compound `C=CC(=O)N1CCC(N2CC(c3cc4c(c(C)n3)OCc3c(ncnc3N3CCS(=O)(=O)CC3)N4)C2)CC1` [compound 63] yielded a melting point of 190 °C. In addition, in data set [1], the IC50 is above 10 µM. Besides, the pIC50 in data set [2] was 5.77. Besides, the Ki in data set [3] (setting [4]) is 0.174 µM. The kinact in data set [3] (setting [5]) was 3.22e-05 s⁻¹. For the same compound, the kinact/KI in data set [3] (setting [6]) is 186 M⁻¹ s⁻¹.
For the compound `CC#CC(=O)N1CCN(C2CCN(c3cc(C)c4c(c3)Nc3ncnc(N5CCS(=O)(=O)CC5)c3CO4)CC2)CC1` [compound 137], the melting point is 267 °C. In addition, the IC50 in data set [1] is above 10 µM. Further, the pIC50 in data set [2] is 6.78. The same compound gave a Ki in data set [3] (setting [4]) of 0.254 µM. The kinact in data set [3] (setting [5]) is 9.43e-05 s⁻¹. The kinact/KI in data set [3] (setting [6]) came to 372 M⁻¹ s⁻¹.
`C=CC(=O)N1CC(N2CCC(c3cc4c(c(C)n3)OCc3c(ncnc3N3CCS(=O)(=O)CC3)N4)CC2)C1` [compound 58] came in with a melting point of 257 °C. For the same compound, the IC50 in data set [1] was above 10 µM. Besides, in data set [2], the pIC50 was 6.54. The compound also came in with a Ki in data set [3] (setting [4]) of 0.0451 µM. Moreover, the kinact in data set [3] (setting [5]) is 5.57e-05 s⁻¹. In data set [3] (setting [6]), the kinact/KI stood at 1240 M⁻¹ s⁻¹.
In turn, `C=CC(=O)N1CCC(N2CC(c3cc4c(c(C(F)(F)F)c3)OCc3c(ncnc3N3CCOCC3)N4)C2)CC1` [compound 45] yielded a melting point of 158 °C. Besides, the IC50 in data set [1] is above 10 µM. Moreover, the negative-log IC50 (pIC50) in data set [2] is 6.37. In data set [3] (setting [4]), this compound had a Ki of 0.219 µM. The kinact in data set [3] (setting [5]) amounted to 4.44e-05 s⁻¹. The kinact/KI in data set [3] (setting [6]) worked out at 203 M⁻¹ s⁻¹.
`C=CC(=O)N1CC[C@@H](N2CC(c3cc4c(c(C5CC5)c3)OCc3c(ncnc3N3CCS(=O)(=O)CC3)N4)C2)C1` (single isomer, unassigned) [compound 93] returned a melting point above 300 °C. In addition, the IC50 in data set [1] was above 10 µM. In addition, the pIC50 in data set [2] was 6.37. Moreover, in data set [3] (setting [4]), the Ki is 0.277 µM. Besides, the maximal inactivation rate constant (kinact) in data set [3] (setting [5]) turned out to be 6.26e-05 s⁻¹. Besides, the kinact/KI in data set [3] (setting [6]) is 226 M⁻¹ s⁻¹.
`C=CC(=O)N1CCN(C2CCN(c3cc(C)c4c(c3)Nc3ncnc(N5CCS(=O)(=O)CC5)c3CO4)CC2)CC1` [compound 91]: the melting point was determined as 267 °C. Also, the IC50 in data set [1] is above 10 µM. In data set [2], this compound gave a pIC50 of 6.96. In data set [3] (setting [4]), this compound had a Ki of 0.0406 µM. For the same compound, the kinact in data set [3] (setting [5]) was determined as 5.75e-05 s⁻¹. Moreover, the kinact/KI in data set [3] (setting [6]) is 1420 M⁻¹ s⁻¹.
Take `C=CC(=O)N1CCC(N2CC(c3cc(C)c4c(c3)Nc3ncnc(N5CCOCC5)c3CO4)C2)C1` (stereo not drawn) [compound 16]: the melting point came to 151 °C. For the same compound, the IC50 in data set [1] is above 10 µM. In data set [2], this compound showed a pIC50 of 6.34. Moreover, the Ki in data set [3] (setting [4]) was 0.192 µM. For the same compound, the kinact in data set [3] (setting [5]) came out at 5.05e-05 s⁻¹. For the same compound, the kinact/KI in data set [3] (setting [6]) turned out to be 263 M⁻¹ s⁻¹.
On to `C=CC(=O)N1CC(N2CCC(c3cc(F)c4c(c3)Nc3ncnc(N5CCOCC5)c3[C@@H](C)O4)CC2)C1` (single isomer, unassigned) [compound 46], for which the melting point stood at 175 °C. Besides, the IC50 in data set [1] was above 10 µM. Moreover, the negative-log IC50 (pIC50) in data set [2] was 6.68. This compound came in with a Ki in data set [3] (setting [4]) of 0.094 µM. The kinact in data set [3] (setting [5]) is 5.18e-05 s⁻¹. For the same compound, the kinact/KI in data set [3] (setting [6]) amounted to 667 M⁻¹ s⁻¹.
As for `C=CC(=O)N1CCC(N2CCN(c3cc(C)c4c(c3)Nc3ncnc(N5CCS(=O)(=O)CC5)c3CO4)CC2)CC1` [compound 89], the melting point was 203 °C. The IC50 in data set [1] is above 10 µM. Also, the negative logarithm of the IC50 (pIC50) in data set [2] was 6.02. In data set [3] (setting [4]), the Ki stood at 0.128 µM. For the same compound, in data set [3] (setting [5]), the kinact turned out to be 5.45e-05 s⁻¹. Besides, in data set [3] (setting [6]), the kinact/KI came to 425 M⁻¹ s⁻¹.
The compound `C=CC(=O)N1CC(N2CCC(c3ccc4c(c3)Nc3ncnc(N5CCOCC5)c3[C@@H](CC)O4)CC2)C1` (single isomer, unassigned) [compound 76] registered a melting point of 124 °C. Also, the IC50 in data set [1] is above 10 µM. For the same compound, the pIC50 in data set [2] is 5.78. The compound further yielded a Ki in data set [3] (setting [4]) of 0.457 µM. The kinact in data set [3] (setting [5]) was found to be 3.9e-05 s⁻¹. In addition, the kinact/KI in data set [3] (setting [6]) amounted to 85.3 M⁻¹ s⁻¹.
In turn, `C=CC(=O)N1CC[C@H](N2CC(c3cc4c(c(C5CC5)c3)OCc3c(ncnc3N3CCS(=O)(=O)CC3)N4)C2)C1` (single isomer, unassigned) [compound 94] came in with a melting point of 167 °C. Also, the IC50 in data set [1] is above 10 µM. For the same compound, the pIC50 in data set [2] was 6.27. Moreover, the Ki in data set [3] (setting [4]) worked out at 0.498 µM. Moreover, the kinact in data set [3] (setting [5]) worked out at 8.53e-05 s⁻¹. Further, the kinact/KI in data set [3] (setting [6]) worked out at 171 M⁻¹ s⁻¹.
As to `CC#CC(=O)N1CCC(N2CC(c3cc(C)c4c(c3)Nc3ncnc(N5CCS(=O)(=O)CC5)c3CO4)C2)CC1` [compound 133], the melting point came to 180 °C. Further, the IC50 in data set [1] is 8.51 µM. The compound further had a pIC50 in data set [2] of 7.04. Further, the Ki in data set [3] (setting [4]) was determined as 0.173 µM. Also, in data set [3] (setting [5]), the kinact turned out to be 2.65e-05 s⁻¹. Besides, the kinact/KI in data set [3] (setting [6]) was 153 M⁻¹ s⁻¹.
As for `C=CC(=O)N1CCC(N2CC(c3cc(C)c4c(c3)Nc3ncnc(N5CCOCC5)c3CO4)C2)CC1` [compound 14], the melting point is 191 °C. Also, the IC50 in data set [1] was above 10 µM. In data set [2], this compound showed a pIC50 of 6.33. In data set [3] (setting [4]), this compound had a Ki of 0.183 µM. The inactivation rate constant (kinact) in data set [3] (setting [5]) came to 3.46e-05 s⁻¹. Also, the kinact/KI in data set [3] (setting [6]) was 189 M⁻¹ s⁻¹.
